Tested on: STAM model of NASH fibrosis
Experiment: Fibrosis area by Sirius red staining, STAM model of NASH with fibrosis (Example 3)
Format: in vivo, mouse
Protocol: Ubenimex or telmisartan was administered orally in a volume at 10 mL/kg. Ubenimex was administered at a dose of 5 mg/kg once daily or twice daily. Telmisartan was administered at a dose of 5 mg/kg once daily. For HE staining, sections were cut from paraffin blocks of liver tissue prefixed in Bouin's solution and stained with Lillie-Mayer's hematoxylin (Muto Pure Chemicals Co., Ltd., Japan) and eosin solution (Wako Pure Chemical Industries, Ltd., Japan). NAFLD Activity Score (NAS) was calculated according to the criteria of Kleiner (Kleiner et al., Hepatology, 2005, 41:1313). To visualize collagen deposition, Bouin's fixed liver sections were stained using picro-Sirius red solution (Waldeck, Germany). For quantitative analysis of fibrosis area, bright field images of Sirius red-staining sections were captured around the central vein using a digital camera (DFC295; Leica, Germany) at 200-fold magnification, and the positive areas in 5 fields/section were measured using ImageJ software (National Institutes of Health, USA). Study groups: The following study groups were used. Group 1 (Vehicle): 8 NASH mice were orally administered vehicle (RO water) in a volume of 10 mL/kg twice daily from 6 to 11 weeks of age. Group 2 (Ubenimex QD for 5 weeks): 8 NASH mice were orally administered vehicle supplemented with ubenimex at a dose of 5 mg/kg once daily from 6 to 11 weeks of age. Group 3 (Ubenimex BID for 5 weeks): 8 NASH mice were orally administered vehicle supplemented with ubenimex at a dose of 5 mg/kg twice daily from 6 to 11 weeks of age. Group 4 (Ubenimex BID for 2 weeks): 8 NASH mice were orally administered vehicle supplemented with ubenimex at a dose of 5 mg/kg twice daily from 9 to 11 weeks of age. Group 5 (Telmisartan for 5 weeks): 8 NASH mice were orally administered pure water supplemented with telmisartan at a dose of 5 mg/kg once daily from 6 to 11 weeks of age.

Compound	Sirius red-positive area (fibrosis area, mean ± SD) (telmisartan 5 mg/kg QD oral, 6 to 11 weeks of age) [%]	Sirius red-positive area (fibrosis area, mean ± SD) (ubenimex 5 mg/kg BID oral, 6 to 11 weeks of age) [%]	Sirius red-positive area (fibrosis area, mean ± SD) (ubenimex 5 mg/kg BID oral, 9 to 11 weeks of age) [%]	Sirius red-positive area (fibrosis area, mean ± SD) (ubenimex 5 mg/kg QD oral, 6 to 11 weeks of age) [%]
CCCc1nc2c(C)cc(-c3nc4ccccc4n3C)cc2n1Cc1ccc(-c2ccccc2C(=O)O)cc1 [Telmisartan, telmisartan]	0.57 ± 0.14	–	–	–
CC(C)C[C@H](NC(=O)[C@@H](O)[C@H](N)Cc1ccccc1)C(=O)O [Ubenimex, (2S)-2-[[(2S,3R)-3-amino-2-hydroxy-4-phenylbutanoyl]amino]-4-methylpentanoic acid]	–	0.88 ± 0.22	0.87 ± 0.14	0.75 ± 0.16

Source: patent publication US11571403B2, “Methods for the treatment of non-alcoholic steatohepatitis” (Eiger Biopharmaceuticals, Inc., priority 2016, dated 2023)
